{"source": "patent US5496823A", "about": "“Pharmaceutical composition for increasing bladder capacity” (Hoechst Japan Limited, priority 1991, dated 1996)", "key": {"[1]": {"tested_on": "urination-reflexing constriction of the bladder", "test": "urination-reflexing constriction of the bladder (cystometrogram) in anesthetized rats, intravenous administration", "type": "in vivo, SD male rats", "details": "for Bladder capacity, First / Bladder capacity, Second / Urination constriction pressure, First / Urination constriction pressure, Second / Urination threshold pressure, First / Urination threshold pressure, Second: relative level, pre-drug value = 1, mean ± SD", "description": "(§1) Effects of test drugs on urination-reflexing constriction of the bladder in anesthetized rats were examined according to Morikawa, et al. [in Oyo Yakuri/Pharmacometrics, Vol. 37, No. 1, pages 27-37, (1989)]. In the following examples, the bladder capacity designates the time from a urination to the next urination (urination interval), urination threshold pressure designates intracystic pressure) immediately prior to initiation of urination constriction and urination constriction pressure designates maximum internal pressure on urination constriction. Figures in the below table indicate relative level from the first and second reactions after administration of a drug taking the measured value before administration of the drug as 1 for bladder capacity (min.), urination threshold pressure (mmHg) and urination constriction pressure (mmHg), respectively.\n(§2) Groups of 4-6 SD male rats were used and each animal was subjected to laparotomy under anesthesia with urethan, ligature around the ureter and then exposure of the bladder, on the top of which was perforated with a small opening, through which a cannula with a three-way step cock was inserted.\n(§3) One of the three-way stop cock was connected to a syringe for continuously introducing a physiological saline solution and another to a pressure transducer for the measurement of intrasystic pressure.\n(§4) A physiological saline solution was introduced into the bladder at a rate of 55 μl per min., and changes in intracystic pressure were recorded until urination. From the intracystic pressure curve were determined bladder capacity, urination threshold pressure and urination constriction pressure to examine the action of the introduction of physiological saline solution.\nThe drug was given via a polyethylene tube inserted into the femoral vein. […]"}, "[2]": {"tested_on": "urination-reflexing constriction of the bladder", "test": "urination-reflexing constriction of the bladder (cystometrogram) in anesthetized rats, intraduodenal administration", "type": "in vivo, SD male rats", "details": "relative level, pre-drug value = 1, mean ± SD", "description": "as §1, §2, §3, §4\nGroups of 4-5 SD male rats were fasted overnight and subjected to the same experimental procedures as in Example 1. The drug was given via a polyethylene tube inserted into the duodenum."}, "[3]": {"details": "Japanese Patent Publication No. 33120/1977; cited from earlier work"}}, "data": [{"smiles": "CCOCn1cnc2c1c(=O)n(CCCCC(C)(C)O)c(=O)n2C", "note": "[Compound VI, 3,7-dihydro-3-methyl-1-(5-hydroxy-5-methylhexyl)-7-ethoxymethyl-1H-purine-2,6-dione]", "values": [{"measurement": "Bladder capacity, First", "setting": "[1]; Table 3, 20 mg/kg i.v., n=5", "value": "1.8 ± 0.9"}, {"measurement": "Bladder capacity, Second", "setting": "[1]; Table 3, 20 mg/kg i.v., n=5", "value": "1.4 ± 1.0"}, {"measurement": "Urination constriction pressure, First", "setting": "[1]; Table 3, 20 mg/kg i.v., n=5", "value": "1.0 ± 0.1"}, {"measurement": "Urination constriction pressure, Second", "setting": "[1]; Table 3, 20 mg/kg i.v., n=5", "value": "1.0 ± 0.1"}, {"measurement": "Urination threshold pressure, First", "setting": "[1]; Table 3, 20 mg/kg i.v., n=5", "value": "1.3 ± 0.9"}, {"measurement": "Urination threshold pressure, Second", "setting": "[1]; Table 3, 20 mg/kg i.v., n=5", "value": "1.0 ± 0.4"}]}, {"smiles": "CCCn1cnc2c1c(=O)n(CCCCC(C)=O)c(=O)n2C", "note": "[propentofylline, 3,7-dihydro-3-methyl-1-(5-oxohexyl)-7-propyl-1H-purine-2,6-dione]", "values": [{"measurement": "Bladder capacity, First", "setting": "[1]; 0.2 mg/kg i.v., n=5", "value": "1.2 ± 0.8"}, {"measurement": "Bladder capacity, Second", "setting": "[1]; 0.2 mg/kg i.v., n=5", "value": "1.1 ± 0.4"}, {"measurement": "Urination constriction pressure, First", "setting": "[1]; 0.2 mg/kg i.v., n=5", "value": "1.0 ± 0.1"}, {"measurement": "Urination constriction pressure, Second", "setting": "[1]; 0.2 mg/kg i.v., n=5", "value": "0.9 ± 0.1"}, {"measurement": "Urination threshold pressure, First", "setting": "[1]; 0.2 mg/kg i.v., n=5", "value": "1.2 ± 0.5"}, {"measurement": "Urination threshold pressure, Second", "setting": "[1]; 0.2 mg/kg i.v., n=5", "value": "1.0 ± 0.3"}, {"measurement": "Bladder capacity, First", "setting": "[1]; 1 mg/kg i.v., n=5", "value": "2.5 ± 1.9"}, {"measurement": "Bladder capacity, Second", "setting": "[1]; 1 mg/kg i.v., n=5", "value": "0.7 ± 0.2"}, {"measurement": "Urination constriction pressure, First", "setting": "[1]; 1 mg/kg i.v., n=5", "value": "1.0 ± 0.1"}, {"measurement": "Urination constriction pressure, Second", "setting": "[1]; 1 mg/kg i.v., n=5", "value": "1.1 ± 0.2"}, {"measurement": "Urination threshold pressure, First", "setting": "[1]; 1 mg/kg i.v., n=5", "value": "1.1 ± 0.1"}, {"measurement": "Urination threshold pressure, Second", "setting": "[1]; 1 mg/kg i.v., n=5", "value": "1.1 ± 0.2"}, {"measurement": "Bladder capacity, Second", "setting": "[1]; 5 mg/kg i.v., n=6", "value": "1.0 ± 0.5"}, {"measurement": "Urination constriction pressure, First", "setting": "[1]; 5 mg/kg i.v., n=6", "value": "1.0 ± 0.1"}, {"measurement": "Urination constriction pressure, Second", "setting": "[1]; 5 mg/kg i.v., n=6", "value": "1.0 ± 0.2"}, {"measurement": "Urination threshold pressure, First", "setting": "[1]; 5 mg/kg i.v., n=6", "value": "1.5 ± 0.4"}, {"measurement": "Urination threshold pressure, Second", "setting": "[1]; 5 mg/kg i.v., n=6", "value": "1.2 ± 0.6"}, {"measurement": "Bladder capacity, First", "setting": "[1]; 5 mg/kg i.v., n=6, P < 0.05", "value": "4.1 ± 2.6"}, {"measurement": "Bladder capacity, Second", "setting": "[1]; 10 mg/kg i.v., n=5", "value": "0.9 ± 0.5"}, {"measurement": "Urination constriction pressure, First", "setting": "[1]; 10 mg/kg i.v., n=5", "value": "1.0 ± 0.2"}, {"measurement": "Urination constriction pressure, Second", "setting": "[1]; 10 mg/kg i.v., n=5", "value": "1.0 ± 0.2"}, {"measurement": "Urination threshold pressure, Second", "setting": "[1]; 10 mg/kg i.v., n=5", "value": "1.1 ± 0.3"}, {"measurement": "Urination threshold pressure, First", "setting": "[1]; 10 mg/kg i.v., n=5, P < 0.01", "value": "2.1 ± 0.7"}, {"measurement": "Bladder capacity, First", "setting": "[1]; 10 mg/kg i.v., n=5, P < 0.05", "value": "3.5 ± 1.1"}, {"measurement": "Bladder capacity, Second", "setting": "[1]; 20 mg/kg i.v., n=5", "value": "1.0 ± 0.8"}, {"measurement": "Urination constriction pressure, First", "setting": "[1]; 20 mg/kg i.v., n=5", "value": "1.0 ± 0.1"}, {"measurement": "Urination constriction pressure, Second", "setting": "[1]; 20 mg/kg i.v., n=5", "value": "1.0 ± 0.1"}, {"measurement": "Urination threshold pressure, Second", "setting": "[1]; 20 mg/kg i.v., n=5", "value": "1.5 ± 0.8"}, {"measurement": "Urination threshold pressure, First", "setting": "[1]; 20 mg/kg i.v., n=5, P < 0.01", "value": "2.5 ± 0.8"}, {"measurement": "Bladder capacity, First", "setting": "[1]; 20 mg/kg i.v., n=5, P < 0.05", "value": "4.9 ± 3.2"}, {"measurement": "constrictive force of the bladder (in words)", "setting": "[1]; animal experiments, summary", "value": "almost no influence upon constrictive force of the bladder"}, {"measurement": "substantial bladder capacity / volume (in words)", "setting": "[1]; animal experiments, summary", "value": "increased substantial bladder capacity"}, {"measurement": "urination intervals (in words)", "setting": "[1]; animal experiments, summary", "value": "prolonged urination intervals"}, {"measurement": "urination threshold pressure (in words)", "setting": "[1]; animal experiments, summary", "value": "increased urination threshold pressure"}, {"measurement": "Bladder capacity, First", "setting": "[2]; 3 mg/kg intraduodenal, n=4", "value": "1.1 ± 0.2"}, {"measurement": "Bladder capacity, Second", "setting": "[2]; 3 mg/kg intraduodenal, n=4", "value": "1.1 ± 0.3"}, {"measurement": "Urination constriction pressure, First", "setting": "[2]; 3 mg/kg intraduodenal, n=4", "value": "1.1 ± 0.1"}, {"measurement": "Urination constriction pressure, Second", "setting": "[2]; 3 mg/kg intraduodenal, n=4", "value": "1.1 ± 0.2"}, {"measurement": "Urination threshold pressure, First", "setting": "[2]; 3 mg/kg intraduodenal, n=4", "value": "1.0 ± 0.2"}, {"measurement": "Urination threshold pressure, Second", "setting": "[2]; 3 mg/kg intraduodenal, n=4", "value": "1.0 ± 0.2"}, {"measurement": "Bladder capacity, First", "setting": "[2]; 10 mg/kg intraduodenal, n=4", "value": "2.7 ± 1.8"}, {"measurement": "Bladder capacity, Second", "setting": "[2]; 10 mg/kg intraduodenal, n=4", "value": "1.0 ± 1.0"}, {"measurement": "Urination constriction pressure, First", "setting": "[2]; 10 mg/kg intraduodenal, n=4", "value": "1.0 ± 0.1"}, {"measurement": "Urination constriction pressure, Second", "setting": "[2]; 10 mg/kg intraduodenal, n=4", "value": "0.9 ± 0.1"}, {"measurement": "Urination threshold pressure, First", "setting": "[2]; 10 mg/kg intraduodenal, n=4", "value": "1.3 ± 0.3"}, {"measurement": "Urination threshold pressure, Second", "setting": "[2]; 10 mg/kg intraduodenal, n=4", "value": "1.3 ± 0.5"}, {"measurement": "Bladder capacity, First", "setting": "[2]; 30 mg/kg intraduodenal, n=5", "value": "2.7 ± 1.6"}, {"measurement": "Bladder capacity, Second", "setting": "[2]; 30 mg/kg intraduodenal, n=5", "value": "0.8 ± 0.6"}, {"measurement": "Urination constriction pressure, First", "setting": "[2]; 30 mg/kg intraduodenal, n=5", "value": "0.9 ± 0.1"}, {"measurement": "Urination constriction pressure, Second", "setting": "[2]; 30 mg/kg intraduodenal, n=5", "value": "1.0 ± 0.1"}, {"measurement": "Urination threshold pressure, First", "setting": "[2]; 30 mg/kg intraduodenal, n=5", "value": "1.6 ± 0.9"}, {"measurement": "Urination threshold pressure, Second", "setting": "[2]; 30 mg/kg intraduodenal, n=5", "value": "1.4 ± 0.9"}, {"measurement": "Bladder capacity, Second", "setting": "[2]; 50 mg/kg intraduodenal, n=5", "value": "0.6 ± 0.2"}, {"measurement": "Urination constriction pressure, First", "setting": "[2]; 50 mg/kg intraduodenal, n=5", "value": "1.0 ± 0.1"}, {"measurement": "Urination constriction pressure, Second", "setting": "[2]; 50 mg/kg intraduodenal, n=5", "value": 1.0}, {"measurement": "Urination threshold pressure, Second", "setting": "[2]; 50 mg/kg intraduodenal, n=5", "value": "1.4 ± 0.7"}, {"measurement": "Bladder capacity, First", "setting": "[2]; 50 mg/kg intraduodenal, n=5, P < 0.01", "value": "4.3 ± 2.1"}, {"measurement": "Urination threshold pressure, First", "setting": "[2]; 50 mg/kg intraduodenal, n=5, P < 0.05", "value": "1.7 ± 0.6"}, {"measurement": "action on vertebral artery (in words)", "setting": "[3]", "value": "specifically active on vertebral artery"}, {"measurement": "blood flow during cerebral circulation (in words)", "setting": "[3]", "value": "increase blood flow highly selectively during cerebral circulation"}]}]}
